Assay [1] concerns the target HCV NS3/4A protease complex, BMS strain (UniProt P27958, C1454S/C1711G, species not given/STRAIN_BMS). Description: Recombinant HCV NS3/4A protease complex FRET peptide assay (BMS strain). In kind it is biochemical, HCV genotype 1a. Conditions: NS3/4A BMS strain; read-out: IC50 range. The text has this: Recombinant HCV NS3/4A Protease Complex FRET Peptide Assay
The purpose of this in vitro assay was to measure the inhibition of HCV NS3 protease complexes, derived from the BMS, H77C or J416S strains, as described below, by compounds of the present invention.
Serum from an HCV-infected patient was obtained from Dr. T. Wright, San Francisco Hospital. An engineered full-length cDNA (compliment deoxyribonucleic acid) template of the HCV genome (BMS strain) was constructed from DNA fragments obtained by reverse transcription-PCR(RT-PCR) of serum RNA (ribonucleic acid) and using primers selected on the basis of homology between other genotype 1a strains.
The BMS, H77C and J4L6S strains were used for production of recombinant NS3/4A protease complexes. […] Briefly, a three-lysine solubilizing tail was added at the 3′-end of the NS4A coding region. […] Briefly, NS3/4A expression was induced with 0.5 mM Isopropyl β-D-1-thiogalactopyranoside (IPTG) for 22 hr at 20° C. […] The crude protein extract was loaded on a Nickel—Nitrilotriacetic acid (Ni-NTA) column pre-equilibrated with buffer B (25 mM HEPES, pH8.0, 20% glycerol, 500 mM NaCl, 0.5% Triton-X100, 15 mM imidazole, 5 mM βME). The sample was loaded at a flow rate of 1 mL/min. The column was washed with 15 column volumes of buffer C (same as buffer B except with 0.2% Triton-X100). The protein was eluted with 5 column volumes of buffer D (same as buffer C except with 200 mM Imidazole).
NS3/4A protease complex-containing fractions were pooled and loaded on a desalting column Superdex-S200 pre-equilibrated with buffer D (25 mM HEPES, pH7.5, 20% glycerol, 300 mM NaCl, 0.2% Triton-X100, 10 mM βME). Sample was loaded at a flow rate of 1 mL/min. NS3/4A protease complex-containing fractions were pooled and concentrated to approximately 0.5 mg/ml.
The enzyme was stored at −80° C., thawed on ice and diluted prior to use in assay buffer. […] The sequence of this peptide is loosely based on the NS4A/NS4B natural cleavage site except there is an ester linkage rather than an amide bond at the cleavage site. The peptide substrate was incubated with one of the three recombinant NS3/4A complexes, in the absence or presence of a compound of the present invention, and the formation of fluorescent reaction product was followed in real time using a Cytofluor Series 4000.
The reagents were as follow: HEPES and Glycerol (Ultrapure) were obtained from GIBCO-BRL. Dimethyl Sulfoxide (DMSO) was obtained from Sigma. β-Mercaptoethanol was obtained from Bio Rad.
Substrate: 2 μM final concentration (from a 2 mM stock solution in DMSO stored at −20° C.). HCV NS3/4A type 1a (1b), 2-3 nM final concentration (from a 5 μM stock solution in 25 mM HEPES, pH7.5, 20% glycerol, 300 mM NaCl, 0.2% Triton-X100, 10 mM βME).
The assay was performed in a 96-well polystyrene black plate from Falcon. Each well contained 25 μl NS3/4A protease complex in assay buffer, 50 μof a compound of the present invention in 10% DMSO/assay buffer and 25 μl substrate in assay buffer. A control (no compound) was also prepared on the same assay plate. The enzyme complex was mixed with compound or control solution for 1 min before initiating the enzymatic reaction by the addition of substrate. The assay plate was read immediately using the Cytofluor Series 4000 (Perspective Biosystems). The instrument was set to read an […] at 25° C. Reactions were generally followed for approximately 15 minutes.
The percent inhibition was calculated with the following equation: 100−[(δFinh/δFcon)×100] where δF is the change in fluorescence over the linear range of the curve.

Assay [2] concerns HCV replicon in Huh7 cells. Briefly: HCV replicon cell-based assay. Details: species or system HCV strain 1B. To be noted: HCV replicon, Huh7 cells, read-out: EC50 range. The text has this:
HCV Replicon Cell-based Assay
This system enabled us to evaluate the effects of our HCV Protease compounds on HCV RNA replication. Briefly, using the HCV strain 1B sequence described in the Lohmann paper (Assession number:AJ238799), an HCV cDNA was generated encoding the 5′ internal ribosome entry site (IRES), the neomycin resistance gene, the EMCV (encephalomyocarditis virus)-IRES and the HCV nonstructural proteins, NS3-NS5B, and 3′ non-translated region (NTR). In vitro transcripts of the cDNA were transfected into the human hepatoma cell line, Huh7. […] Resulting cell lines were characterized for positive and negative strand RNA production and protein production over time.
Huh7 cells, constitutively expressing the HCV replicon, were grown in Dulbecco's Modified Eagle Media (DMEM) containing 10% Fetal calf serum (FCS) and 1 mg/ml G418 (Gibco-BRL). Cells were seeded the night before (1.5×10^4 cells/well) in 96-well tissue-culture sterile plates. Compound and no compound controls were prepared in DMEM containing 4% FCS, 1:100 Penicillin/Streptomysin, 1:100 L-glutamine and 5% DMSO in the dilution plate (0.5% DMSO final concentration in the assay). Compound/DMSO mixes were added to the cells and incubated for 4 days at 37° C. After 4 days, plates were rinsed thoroughly with Phosphate-Buffered Saline (PBS) (3 times 150 μl). The cells were lysed with 25 μl of a lysis assay reagent containing the FRET peptide (RET S1, as described for the in vitro enzyme assay). The lysis assay reagent was made from 5× cell Luciferase cell culture lysis reagent(Promega #E153A) diluted to 1× with distilled water, NaCl added to 150 mM final, the FRET peptide diluted to 10 μM final from a 2 mM stock in 100% DMSO. The plate was then placed into the Cytofluor 4000 instrument which had been set to 340 nm excitation/490 emission, automatic mode for 21 cycles and the plate read in a kinetic mode. EC50 determinations were carried out as described for the IC50 determinations.
Cells were lyzed using the Rneasy kit (Qiagen). […] All primers were designed with ABI Prism 7700 software and obtained from Biosearch Technologies, Novato, Calif. Samples containing known concentrations of HCV RNA transcript were run as standards. Using the following cycling protocol (50° C., 30 min; 95° C., 5 min; 40 cycles of 95° C., 15 sec, 60° C., 1 min), HCV RNA expression was quantitated as described in the Perkin Elmer manual using the ABI Prism 7700 Sequence Detector.
In general terms: Replicon systems follow genome replication, usually without infectious particles.

From patent US7915291B2, “Hepatitis C virus inhibitors” (Bristol-Myers Squibb Company, priority 2002, dated 2011) come the findings set out here.

One may read the IC50 as the midpoint of a concentration-inhibition curve. Broadly, the EC50 is the concentration giving half of the maximal effect.

Like-named read-outs stand apart in the source and are kept apart here.

As to `C=CC1CC1(NC(=O)C1CC(Oc2nc(-c3ccccc3)nc3ccc(OC)cc23)CN1C(=O)[C@@H](NC(=O)OC(C)(C)C)C(C)(C)C)C(=O)NS(=O)(=O)C(C)C` (mixture of isomers) [Compound 45], the IC50 in assay [1] lay within 100 to 1000 nM. For the same compound, in assay [2] (Hepatitis C virus, Huh-7), the EC50 fell in the range of 1000 to 10000 nM. For `C=CC1CC1(NC(=O)C1CC(Oc2nc(C3CC3)nc3cc(OC)c(OC)cc23)CN1C(=O)[C@@H](NC(=O)OC(C)(C)C)C(C)(C)C)C(=O)NS(=O)(=O)C(C)C` (mixture of isomers) [Compound 46], the IC50 in assay [1] is 100 to 1000 nM. Also, the EC50 in assay [2] (Hepatitis C virus, Huh-7) lay within 1000 to 10000 nM. As for `C=C[C@@H]1C[C@]1(NC(=O)[C@@H]1C[C@@H](Oc2nccc3cc(OC)ccc23)CN1C(=O)C(NC(=O)OC(C)(C)C)C(C)c1ccccc1)C(=O)NS(=O)(=O)C1CC1` (single isomer, unassigned) [Compound 135], the IC50 in assay [1] was less than 100 nM. The EC50 in assay [2] (Hepatitis C virus, Huh-7) lay within 100 to 1000 nM.

In the case of `C=C[C@@H]1C[C@]1(NC(=O)[C@@H]1C[C@@H](Oc2nccc3cc(OC)ccc23)CN1C(=O)C(NC(=O)OC(C)(C)C)C(C)c1ccccc1)C(=O)NS(=O)(=O)C1CC1` (single isomer, unassigned) [Compound 136], the IC50 in assay [1] is less than 100 nM. Further, the EC50 in assay [2] lay in the range of 100 to 1000 nM. Turning to `C=C[C@@H]1C[C@]1(NC(=O)[C@@H]1C[C@@H](Oc2cc(-c3ccccc3)nc3c(C)noc23)CN1C(=O)[C@@H](NC(=O)OC(C)(C)C)C(C)(C)C)C(=O)NS(=O)(=O)C1CC1` [Compound 1], in assay [1], the half-inhibitory concentration (IC50) is less than 100 nM. Further, in assay [2] (Hepatitis C virus, Huh-7), the EC50 was less than 100 nM. `C=C[C@@H]1C[C@]1(NC(=O)[C@@H]1C[C@@H](Oc2cc(-c3ccccc3)nc3nc(C)ccc23)CN1C(=O)[C@@H](NC(=O)OC(C)(C)C)C(C)(C)C)C(=O)NS(=O)(=O)C1CC1` [Compound 2]: the half-inhibitory concentration (IC50) in assay [1] is less than 100 nM. For the same compound, the EC50 in assay [2] (Hepatitis C virus, Huh-7) was in the range of 100 to 1000 nM.

On to `C=C[C@@H]1C[C@]1(NC(=O)[C@@H]1C[C@@H](Oc2cc(-c3ccc(OC)cc3)nc3c(C)noc23)CN1C(=O)[C@@H](NC(=O)OC(C)(C)C)C(C)(C)C)C(=O)NS(=O)(=O)C1CC1` [Compound 3], for which the IC50 in assay [1] was less than 100 nM. Further, in assay [2] (Hepatitis C virus, Huh-7), the EC50 is less than 100 nM. As to `C=C[C@@H]1C[C@]1(NC(=O)[C@@H]1C[C@@H](Oc2cc(-c3ccc(F)cc3)nc3c(C)noc23)CN1C(=O)[C@@H](NC(=O)OC(C)(C)C)C(C)(C)C)C(=O)NS(=O)(=O)C1CC1` [Compound 4], in assay [1], the IC50 was less than 100 nM. In addition, the EC50 in assay [2] (Hepatitis C virus, Huh-7) is less than 100 nM. For the compound `C=C[C@@H]1C[C@]1(NC(=O)[C@@H]1C[C@@H](Oc2cc(-c3cccc(OC)c3)nc3c(C)noc23)CN1C(=O)[C@@H](NC(=O)OC(C)(C)C)C(C)(C)C)C(=O)NS(=O)(=O)C1CC1` [Compound 5], the IC50 in assay [1] is less than 100 nM. The half-maximal effective concentration (EC50) in assay [2] (Hepatitis C virus, Huh-7) was less than 100 nM. Take `C=C[C@@H]1C[C@]1(NC(=O)[C@@H]1C[C@@H](Oc2cc(-c3ccccc3OC)nc3c(C)noc23)CN1C(=O)[C@@H](NC(=O)OC(C)(C)C)C(C)(C)C)C(=O)NS(=O)(=O)C1CC1` [Compound 6]: in assay [1], the IC50 lay within 100 to 1000 nM. Also, in assay [2] (Hepatitis C virus, Huh-7), the EC50 is 100 to 1000 nM.

As to `C=C[C@@H]1C[C@]1(NC(=O)[C@@H]1C[C@@H](Oc2ccc3ccccc3n2)CN1C(=O)[C@@H](NC(=O)OC(C)(C)C)C(C)(C)C)C(=O)NS(=O)(=O)C1CC1` [Compound 7], the IC50 in assay [1] is less than 100 nM. Besides, the EC50 in assay [2] (Hepatitis C virus, Huh-7) lay within 100 to 1000 nM. On the same counts, the results for `C=CC1CC1(NC(=O)[C@@H]1C[C@@H](Oc2cc(C(F)(F)F)nc3nc(C)ccc23)CN1C(=O)[C@@H](NC(=O)OC(C)(C)C)C(C)(C)C)C(=O)NS(=O)(=O)C1CC1` (stereo partly drawn) [Compound 8] are 100 to 1000 nM and 1000 to 10000 nM. Taken in the same sequence, the figures for `C=CC1CC1(NC(=O)[C@@H]1C[C@@H](Oc2cc(CC)nc3c(C)noc23)CN1C(=O)[C@@H](NC(=O)OC(C)(C)C)C(C)(C)C)C(=O)NS(=O)(=O)C1CC1` (stereo partly drawn) [Compound 9] were less than 100 nM and 100 to 1000 nM.

Regarding `C=CC1CC1(NC(=O)[C@@H]1C[C@@H](Oc2cc(-c3ccccc3)nc3c(C)noc23)CN1C(=O)[C@@H](NC(=O)OC(C)(C)C)C(C)(C)C)C(=O)NS(=O)(=O)C1CC1` (stereo partly drawn) [Compound 10], the IC50 in assay [1] was less than 100 nM. Moreover, the EC50 in assay [2] (Hepatitis C virus, Huh-7) is less than 100 nM. For the compound `C=C[C@@H]1C[C@]1(NC(=O)[C@@H]1C[C@@H](Oc2nccc3cc(OC)ccc23)CN1C(=O)[C@@H](NC(=O)OC(C)(C)C)C(C)(C)C)C(=O)NS(=O)(=O)C1CC1` [Compound 11], the IC50 in assay [1] was less than 100 nM. In assay [2] (Hepatitis C virus, Huh-7), the EC50 was less than 100 nM. With `C=C[C@@H]1C[C@]1(NC(=O)[C@@H]1C[C@@H](Oc2nccc3cc(OC)ccc23)CN1C(=O)[C@@H](NC(=O)OC(C)(C)C)C(C)C)C(=O)NS(=O)(=O)C1CC1` [Compound 12], the IC50 in assay [1] is less than 100 nM. In addition, the EC50 in assay [2] (Hepatitis C virus, Huh-7) was less than 100 nM. In the case of `C=C[C@@H]1C[C@]1(NC(=O)[C@@H]1C[C@@H](Oc2nccc3cc(OC)ccc23)CN1C(=O)[C@@H](NC(=O)N[C@H](C(=O)OC)C(C)(C)C)C(C)(C)C)C(=O)NS(=O)(=O)C1CC1` [Compound 146], the half-maximal effective concentration (EC50) in assay [2] (Hepatitis C virus, Huh-7) is less than 100 nM. On the same count and under the same terms, the value for `C=C[C@@H]1C[C@]1(NC(=O)[C@@H]1C[C@@H](Oc2nccc3cc(OC)ccc23)CN1C(=O)[C@@H](NC(=O)N[C@@H](C)COC)C(C)(C)C)C(=O)NS(=O)(=O)C1CC1` [Compound 153] was less than 100 nM; that for `C=C[C@@H]1C[C@]1(NC(=O)[C@@H]1C[C@@H](Oc2ncc(OC)c3ccc(Cl)cc23)CN1C(=O)[C@@H](NC(=O)OC(C)(C)C)C(C)(C)C)C(=O)NS(=O)(=O)C1CC1` [Compound 277] was less than 100 nM. Same read-out and setting: the value for `C=C[C@@H]1C[C@]1(NC(=O)[C@@H]1C[C@@H](Oc2ccnc3cc(OC)ccc23)CN1C(=O)[C@@H](NC(=O)OC(C)(C)C)C(C)(C)C)C(=O)NS(=O)(=O)C1CC1` [Compound 376] was less than 100 nM.
